# Data reported in US8148391B2 (Cephalon, Inc., priority 2006, dated 2012).
# Where two headings read alike, the source gives them in different places.
# Legend:
# [1] = biological target: T1, baculovirus-expressed ALK (Homo sapiens, UniProt Q9UM73); test: ALK Kinase Assay (ELISA-type, time-resolved fluorescence); assay type: biochemical
# T1 construct: host or cells: baculovirus expression system
# Method in brief: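 Substrate coating: phospholipase C-γ, 10 μg/mL in TBS. Kinase step: 30 ng/ml ALK, 15 min, 37° C. Detection and analysis: Eu-N1 PT66 antibody, with IC50 fitted as a sigmoidal variable-slope dose-response curve.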
# [2] = biological target: T2, c-Met (cytoplasmic domain) (Homo sapiens, UniProt P08581); test: c-Met Kinase Assay (same methods as for ALK, with modifications); assay type: biochemical
# T2 construct: 10 ng/mL c-Met (cytoplasmic domain, Invitrogen Corporation #PV3143); purchased Invitrogen Corporation PV3143
# T2 sequence (P08581 956-1390 limits assumed): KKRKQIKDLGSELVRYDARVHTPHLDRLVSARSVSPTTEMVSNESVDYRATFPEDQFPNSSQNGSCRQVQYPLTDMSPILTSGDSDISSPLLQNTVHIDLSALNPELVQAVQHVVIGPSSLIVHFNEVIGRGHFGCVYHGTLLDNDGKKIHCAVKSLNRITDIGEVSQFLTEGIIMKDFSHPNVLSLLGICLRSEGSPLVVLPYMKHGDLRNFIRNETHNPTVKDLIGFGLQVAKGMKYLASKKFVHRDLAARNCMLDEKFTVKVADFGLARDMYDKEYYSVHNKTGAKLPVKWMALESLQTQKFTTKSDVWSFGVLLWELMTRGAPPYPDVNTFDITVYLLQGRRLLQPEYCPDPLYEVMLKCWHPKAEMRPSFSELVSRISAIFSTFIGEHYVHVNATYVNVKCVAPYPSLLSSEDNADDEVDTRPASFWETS
# Method in brief: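 Wells were coated with 10 μg/mL phospholipase C-γ substrate in TBS, and reactions were started with 10 ng/mL c-Met cytoplasmic domain and run at 37° C for 15 minutes. Phosphorylated product was detected with Eu-N1-labeled PT66 antibody. IC50 values came from sigmoidal variable-slope fits of percent inhibition versus log compound concentration.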
# [3] = 1 μM ATP (Km level), 30 ng/ml ALK, 37° C., 15 minutes, read-out: ALK Activity (ALK kinase inhibition, IC50 class)
# [4] = 1 μM ATP (Km level), 10 ng/mL c-Met, read-out: cMet Activity (c-Met kinase inhibition, IC50 class)
# [5] = ALK kinase inhibition, 1 μM ATP, read-out: ALK Activity
# [6] = c-Met kinase inhibition, 1 μM ATP, read-out: cMet Activity
# [7] = ALK kinase inhibition, 1 μM ATP (Km level), read-out: ALK Activity
# [8] = c-Met kinase inhibition, 1 μM ATP (Km level), read-out: cMet Activity
# T1 sequence (Q9UM73 19-1620): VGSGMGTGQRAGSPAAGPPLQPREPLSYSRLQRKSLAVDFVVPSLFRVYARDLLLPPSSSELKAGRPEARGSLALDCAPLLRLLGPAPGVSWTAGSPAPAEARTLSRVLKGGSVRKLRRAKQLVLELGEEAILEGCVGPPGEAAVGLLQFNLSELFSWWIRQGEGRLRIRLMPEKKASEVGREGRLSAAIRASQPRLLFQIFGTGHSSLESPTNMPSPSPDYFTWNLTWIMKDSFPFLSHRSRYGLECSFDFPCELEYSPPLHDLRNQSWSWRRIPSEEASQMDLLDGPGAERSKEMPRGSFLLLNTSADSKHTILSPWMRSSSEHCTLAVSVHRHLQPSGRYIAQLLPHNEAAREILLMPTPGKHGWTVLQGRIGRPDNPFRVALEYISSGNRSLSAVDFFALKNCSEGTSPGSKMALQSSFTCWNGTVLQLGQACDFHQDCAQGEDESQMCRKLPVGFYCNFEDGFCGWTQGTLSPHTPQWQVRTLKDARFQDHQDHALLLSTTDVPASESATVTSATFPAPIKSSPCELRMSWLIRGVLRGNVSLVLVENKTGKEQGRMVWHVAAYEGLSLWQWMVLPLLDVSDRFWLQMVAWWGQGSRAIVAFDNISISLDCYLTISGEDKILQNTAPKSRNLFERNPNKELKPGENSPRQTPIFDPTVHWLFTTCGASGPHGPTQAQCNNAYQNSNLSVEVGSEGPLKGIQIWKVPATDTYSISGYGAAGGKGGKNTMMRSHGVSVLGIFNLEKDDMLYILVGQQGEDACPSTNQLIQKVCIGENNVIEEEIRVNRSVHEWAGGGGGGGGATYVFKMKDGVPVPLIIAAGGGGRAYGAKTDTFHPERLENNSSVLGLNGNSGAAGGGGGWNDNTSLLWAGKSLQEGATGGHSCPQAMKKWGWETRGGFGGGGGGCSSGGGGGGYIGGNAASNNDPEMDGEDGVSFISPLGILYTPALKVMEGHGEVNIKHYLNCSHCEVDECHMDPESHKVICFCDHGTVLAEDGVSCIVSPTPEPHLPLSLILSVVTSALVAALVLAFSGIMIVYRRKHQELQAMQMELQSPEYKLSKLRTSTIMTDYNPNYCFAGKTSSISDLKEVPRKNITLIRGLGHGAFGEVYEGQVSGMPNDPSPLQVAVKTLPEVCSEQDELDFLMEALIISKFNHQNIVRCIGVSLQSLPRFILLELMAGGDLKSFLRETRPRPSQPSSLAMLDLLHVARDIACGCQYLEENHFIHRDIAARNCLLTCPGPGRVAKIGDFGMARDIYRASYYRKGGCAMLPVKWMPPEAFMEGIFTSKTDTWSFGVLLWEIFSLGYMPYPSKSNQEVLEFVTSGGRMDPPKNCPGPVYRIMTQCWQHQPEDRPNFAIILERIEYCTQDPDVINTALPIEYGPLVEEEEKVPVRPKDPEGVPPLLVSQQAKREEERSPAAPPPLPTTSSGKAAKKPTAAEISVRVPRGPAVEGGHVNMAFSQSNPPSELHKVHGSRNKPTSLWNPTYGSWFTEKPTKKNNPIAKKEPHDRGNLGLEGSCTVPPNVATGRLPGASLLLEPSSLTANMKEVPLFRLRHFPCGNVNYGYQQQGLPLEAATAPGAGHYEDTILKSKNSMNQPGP
"IC50 [1, 3] [nM]","IC50 [2, 4] [nM]","IC50 [1, 5] [nM]","IC50 [2, 6] [nM]","IC50 [1, 7] [nM]","IC50 [2, 8] [nM]",SMILES,further results
100 to 1000,1000 to 10000,–,–,–,–,"COCCN1CCc2ccc(Nc3ncc(Cl)c(Oc4c(F)cccc4OC4CCOC4)n3)cc2CC1 (centres unmarked) [Example 1308, {5-Chloro-4-[2-fluoro-6-(tetrahydro-furan-3-yloxy)-phenoxy]-pyrimidin-2-yl}-[3-(2-methoxy-ethyl)-2,3,4,5-tetrahydro-1H-3-benzazepin-7-yl]-amine]",–
–,–,1000 to 10000,< 100,–,–,"CN1C(=O)OCCc2cc(Nc3ncc(Cl)c(Nc4c(F)cccc4OCC(O)CO)n3)ccc21 (centres unmarked) [Example 1717, 2-{5-Chloro-4-[2-(2,3-dihydroxy-propoxy)-6-fluoro-phenylamino]-pyrimidin-2-ylamino}-5-methyl-8,9-dihydro-5H-7-oxa-5-aza-benzocyclohepten-6-one]",–
< 100,100 to 1000,–,–,–,–,"C#CCNC(=O)c1cccc(F)c1Nc1nc(Nc2ccc3c(c2)OCCCN3C(=O)OCCOC)ncc1Cl [Example 1437, 3-[5-Chloro-4-(2-fluoro-6-prop-2-ynylcarbamoyl-phenylamino)-pyrimidin-2-ylamino]-7,8-dihydro-6H-5-oxa-9-aza-benzocycloheptene-9-carboxylic acid 2-methoxy-ethyl ester]",–
–,–,–,–,< 100,> 10000,"COCCN1CCN(C)c2cc(Nc3ncc(Cl)c(Nc4ccc(N5CCOCC5)cc4OC)n3)c(OC)cc2C1 [Example 495, 5-Chloro-N*2*-[7-methoxy-4-(2-methoxy-ethyl)-1-methyl-2,3,4,5-tetrahydro-1H-benzo[e][1,4]diazepin-8-yl]-N*4*-(2-methoxy-4-morpholin-4-yl-phenyl)-pyrimidine-2,4-diamine]",–
–,–,–,–,–,–,"CCN1C(=O)CCCc2c1ccc(Nc1ncc(Cl)c(Nc3ccc(OC)cc3-n3cccn3)n1)c2OC [Example 613, 7-[5-Chloro-4-(4-methoxy-2-pyrazol-1-yl-phenylamino)-pyrimidin-2-ylamino]-1-ethyl-6-methoxy-1,3,4,5-tetrahydro-benzo[b]azepin-2-one]","IC50 ([1]; 1 μM ATP (Km level), read-out: ALK Activity (ALK Kinase Inhibition, IC50)): < 100 nM; IC50 ([2]; 1 μM ATP (Km level), read-out: cMet Activity (c-Met Kinase Inhibition, IC50)): > 10000 nM"
< 100,100 to 1000,–,–,–,–,"OC1CCc2ccc(Nc3ncc(Cl)c(Nc4ccccc4-n4cccn4)n3)cc2CC1 (centres unmarked) [Example 1035, 2-[5-Chloro-4-(2-pyrazol-1-yl-phenylamino)-pyrimidin-2-ylamino]-6,7,8,9-tetrahydro-5H-benzocyclohepten-7-ol]",–
–,–,–,–,< 100,< 100,"CCN1CCN(CC)c2cc(Nc3ncc(Cl)c(Nc4ccccc4C(=O)NC)n3)ccc2C1=O [Example 418, 2-[5-Chloro-2-(1,4-diethyl-5-oxo-2,3,4,5-tetrahydro-1H-benzo[e][1,4]diazepin-8-ylamino)-pyrimidin-4-ylamino]-N-methylbenzamide]",–
–,–,–,–,< 100,< 100,"CCNC(=O)c1ccccc1Nc1nc(Nc2ccc3c(c2)CCN(CCOC)CC3)ncc1Cl [Example 343, 2-{5-Chloro-2-[3-(2-methoxy-ethyl)-2,3,4,5-tetrahydro-1H-benzo[d]azepin-7-ylamino]-pyrimidin-4-ylamino}-N-ethyl-benzamide]",–
–,–,< 100,100 to 1000,–,–,"CCN1CCNC(=O)c2ccc(Nc3ncc(Cl)c(N[C@@H]4CCCC[C@H]4NS(C)(=O)=O)n3)cc21 [Example 1451, N-{(1R,2R)-2-[5-Chloro-2-(1-ethyl-5-oxo-2,3,4,5-tetrahydro-1H-benzo[e][1,4]diazepin-8-ylamino)-pyrimidin-4-ylamino]-cyclohexyl}-methanesulfonamide]",–
–,–,1000 to 10000,100 to 1000,–,–,"CNC(=O)c1cc(F)ccc1Nc1nc(Nc2ccc3c(c2)-c2nccn2CCC3)ncc1Cl [Example 1847, 2-[5-Chloro-2-(5,6-dihydro-4H-1,3a-diaza-benzo[e]azulen-9-ylamino)-pyrimidin-4-ylamino]-5-fluoro-N-methyl-benzamide]",–
< 100,100 to 1000,–,–,–,–,"CN(C)S(=O)(=O)c1ccccc1Nc1nc(Nc2ccc3c(c2)CCC(O)CC3)ncc1Cl (centres unmarked) [Example 1033, 2-[5-Chloro-2-(7-hydroxy-6,7,8,9-tetrahydro-5H-benzocyclohepten-2-ylamino)-pyrimidin-4-ylamino]-N,N-dimethyl-benzenesulfonamide]",–
–,–,< 100,> 10000,–,–,"COc1cc2c(cc1Nc1ncc(Cl)c(N[C@@H]3CCCC[C@H]3NS(C)(=O)=O)n1)CCN(CCN1CCOCC1)CC2 [Example 1533, N-((1R,2R)-2-{5-Chloro-2-[8-methoxy-3-(2-morpholin-4-yl-ethyl)-2,3,4,5-tetrahydro-1H-3-benzazepin-7-ylamino]-pyrimidin-4-ylamino}-cyclohexyl)-methanesulfonamide]",–
–,–,< 100,< 100,–,–,"CCN1CC(=O)N(CC)c2cc(Nc3ncc(Cl)c(Nc4ccsc4C(=O)NC)n3)ccc2C1 [Example 1856, 3-[5-Chloro-2-(1,4-diethyl-2-oxo-2,3,4,5-tetrahydro-1H-benzo[e][1,4]diazepin-8-ylamino)-pyrimidin-4-ylamino]-thiophene-2-carboxylic acid methylamide]",–
–,–,–,–,< 100,1000 to 10000,"CN1CCNCc2ccc(Nc3ncc(Cl)c(N[C@@H]4CCCC[C@H]4NS(C)(=O)=O)n3)cc21 [Example 475, N-{(1R,2R)-2-[5-Chloro-2-(1-methyl-2,3,4,5-tetrahydro-1H-benzo[e][1,4]diazepin-8-ylamino)-pyrimidin-4-ylamino]-cyclohexyl}-methanesulfonamide]",–
< 100,100 to 1000,–,–,–,–,"CNC(=O)c1cc(-c2ccc(C#N)cc2)cc(F)c1Nc1nc(Nc2ccc3c(c2)NC(=O)CCC3)ncc1Cl [Example 1420, 4-[5-Chloro-2-(2-oxo-2,3,4,5-tetrahydro-1H-benzo[b]azepin-8-ylamino)-pyrimidin-4-ylamino]-4′-cyano-5-fluoro-biphenyl-3-carboxylic acid methyl amide]",–
–,–,< 100,1000 to 10000,–,–,"COc1cc2c(cc1Nc1ncc(Cl)c(Nc3ccccc3S(=O)(=O)N(C)C)n1)CCN(CCN1CCOCC1)CC2 [Example 1522, 2-{5-Chloro-2-[8-methoxy-3-(2-morpholin-4-yl-ethyl)-2,3,4,5-tetrahydro-1H-3-benzazepin-7-ylamino]-pyrimidin-4-ylamino}-N,N-dimethyl-benzenesulfonamide]",–
< 100,> 10000,–,–,–,–,"CCN1CCc2cc(Nc3ncc(Cl)c(Nc4ccc(N5CCOCC5)cc4OC)n3)c(OC)cc2CC1 [Example 1129, 5-Chloro-N*2*-(3-ethyl-8-methoxy-2,3,4,5-tetrahydro-1H-benzo[d]azepin-7-yl)-N*4*-(2-methoxy-4-morpholin-4-yl-phenyl)-pyrimidine-2,4-diamine]",–
–,–,–,–,< 100,1000 to 10000,"CCN1CCc2ccc(Nc3ncc(Cl)c(N[C@@H]4c5ccccc5C[C@@H]4O)n3)cc2CC1 [Example 235, (1R,2S)-1-[5-Chloro-2-(3-ethyl-2,3,4,5-tetrahydro-1H-benzo[d]azepin-7-ylamino)-pyrimidin-4-ylamino]-indan-2-ol]",–

SMILES,"IC50 [1, 3] [nM]","IC50 [2, 4] [nM]","IC50 [1, 5] [nM]","IC50 [2, 6] [nM]","IC50 [1, 7] [nM]","IC50 [2, 8] [nM]",further results
"CNS(=O)(=O)c1ccccc1Nc1nc(Nc2ccc3c(c2)C2CCC3CN(S(C)(=O)=O)C2)ncc1Cl (centres unmarked) [Example 286, 2-[5-Chloro-2-(10-methanesulfonyl-10-aza-tricyclo[6.3.2.0*2,7*]trideca-2,4,6-trien-4-ylamino)-pyrimidin-4-ylamino]-N-methyl-benzenesulfonamide]",–,–,–,–,< 100,< 100,–
